Assays:
LRP6-PTH1R complex = target: T1, LRP6-PTH1R complex (Rattus norvegicus, UniProt P25961); test: Co-immunoprecipitation of endogenous LRP6 and PTH1R in UMR-106 cells; type: cell-based; details: IP with antibodies to LRP6, time-dependent
T1 construct: endogenous LRP6 and endogenous PTH1R in UMR-106 cells; endogenous in cells; host or cells: UMR-106
T1 sequence (P25961 27-591): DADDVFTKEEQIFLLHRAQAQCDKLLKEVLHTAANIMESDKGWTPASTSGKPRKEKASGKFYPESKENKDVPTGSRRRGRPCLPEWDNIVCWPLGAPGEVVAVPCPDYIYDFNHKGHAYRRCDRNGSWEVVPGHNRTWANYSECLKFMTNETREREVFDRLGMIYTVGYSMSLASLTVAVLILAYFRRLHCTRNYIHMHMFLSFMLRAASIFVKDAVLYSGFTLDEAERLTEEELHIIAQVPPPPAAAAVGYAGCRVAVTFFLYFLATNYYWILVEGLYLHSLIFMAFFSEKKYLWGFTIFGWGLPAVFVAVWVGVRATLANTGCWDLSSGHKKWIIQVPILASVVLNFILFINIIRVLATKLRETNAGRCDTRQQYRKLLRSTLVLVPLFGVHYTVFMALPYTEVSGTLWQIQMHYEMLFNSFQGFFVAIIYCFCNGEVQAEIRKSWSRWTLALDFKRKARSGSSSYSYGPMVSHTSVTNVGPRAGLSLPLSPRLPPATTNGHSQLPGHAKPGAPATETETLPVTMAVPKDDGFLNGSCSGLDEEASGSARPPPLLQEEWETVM
Method: (§1) Cells were harvested in cavitation buffer (5 mM HEPES, pH 7.4, 3 mM MgCl2, 1 mM EGTA, 250 mM sucrose) containing protease and phosphatase inhibitors and homogenized by nitrogen cavitation (200 p.s.i., for 5 minutes) in a cell disruption bomb (Parr Instrument Co.; Moline, Ill.). The cell homogenate was centrifuged twice at 700 g for 10 minutes to pellet the nuclei. The supernatant was further centrifuged at 100,000 g (Beckman SW50.1 rotor) for 1 hour to separate the membrane and cytosol fractions, and the resulting membrane pellet was washed three times with cavitation buffer before use in the assays (Zhang et al., Biochem. J. 343:541-9 (1999)). Immunoprecipitation and Western blot analysis of cell lysates were performed as described previously (Wan et al., Am. J. Pathol. 166:1379-92 (2005)).

LRP6 = LRP6 phosphorylation at PPPSP motifs, western blotting with Ab1490, UMR-106 cells; type: cell-based, rat; details: UMR-106 cells, endogenous LRP6, Ab1490
Method: as §1
As phosphorylation of LRP6 at the PPPSP motifs plays a crucial role in activating downstream β-catenin signaling by Wnt, whether PTH induces phosphorylation of LRP6 at PPPSP motifs (Mao et al., Mol. Cell. 7:801-9 (2001); Tamai et al., Mol. Cell. 13:149-56 (2004); Davidson et al., Nature 438:867-72 (2005); Zeng et al., Nature 438:873-7 (2005)). Immunoprecipitated LRP6 from extracts of PTH-treated UMR-106 cells were monitored for their phosphorylation, by western blotting, with an antibody that recognizes phosphorylated PPPSP motifs (Ab1490) (Tamai et al., Mol. Cell. 13:149-56 (2004)). […] Phosphorylation of PPPSP motifs is required for axin recruitment from cytoplasm to LRP6 at cell membrane. […] Fz8CRD, a competitive inhibitor of the Wnt receptor Fz (Hsieh et al., Proc. Natl. Acad. Sci. USA 96:3546-55 (1999)), was used to exclude the possibility that these PTH effects are mediated through promotion of Wnts production or sensitization of Wnt-stimulated signaling. […] In contrast, LRP6N blocked PTH-stimulated LRP6 phosphorylation (FIG. 33).

axin1 = test: Axin1 recruitment to cell membrane, cell fractionation assay in mouse primary preosteoblasts; type: cell-based
Method: Osteoblasts were isolated by digestion of calvaria of newborn mice as described (Wang et al., J. Clin. Invest. 117:1616-26 (2007)). Briefly, calvaria were incubated with 10 ml of digestion solution containing 1.8 mg/ml of collagenase type I (Worthington Biochemical Corp.; Lakewood, N.J.) for 15 minutes at 37° C. under constant agitation. The supernatant was then harvested, replaced with fresh collagenase and the digestion repeated an additional 4 times. Digestion solutions containing the osteoblasts were pooled together. After centrifugation, osteoblasts were obtained and cultured in α-Minimal Essential Media (MEM) containing 10% FBS and 1% penicillin/streptomycin at 37° C. in a humidified incubator supplied with 5% CO2.
as §1, with “Immunoprecipitation and Western blot analysis of cell lysates were performed as described previously (Wan et al., Am. J. Pathol. 166:1379-92 (2005)).” left out

[1] = tested on: phosphorylated LRP6 in osteoblasts; test: Immunohistochemistry of phosphorylated LRP6 in femur sections, rats; type: in vivo, rat
Method: For the experiments in which rats or mice were administered PTH as single-dose injection, five-month-old male Sprague Dawley rats (Charles River Laboratories; Wilmington, Mass.) or two-month-old male C57BL/J6 mice (Jackson Laboratory; Bar Harbor, Me.) (6 per group) were administered a single dose of either vehicle (1 mM acetic acid in sterile PBS) or PTH (1-34) (Bachem Inc.; Torrance, Calif.) at 40 μg/kg in a volume of 100 μl. In the mouse model, mouse recombinant Wnt3a (R&D Systems; Minneapolis, Minn.) was injected at 25 μg/kg in a volume of 100 μl. All treatments were through bolus intravenous injection via the tail vein. Rats/mice were sacrificed at 0.5, 2, 8 and 24 hours after injection.
Formalin-fixed femur or tibia tissue sections of 5 μm thickness from rats or mice were processed with antigen retrieval and hydrogen peroxide treatment prior to incubation with primary monoclonal antibody specific for β-catenin (BD Biosciences; San Jose, Calif.), goat polyclonal antibody sclerostin (R&D Systems; Minneapolis, Minn.) or rabbit polyclonal phosphorylated LRP6 (Ab1490) for 1 hour at room temperature or overnight at 4° C. […] In the mouse model, numbers of total osteoblasts and numbers of β-catenin-positive osteoblasts were counted in three random high power fields in a 2-mm square, 1 mm distal to the lowest point of the growth plate in the secondary spongiosa. […]

Question: For Parathyroid hormone [PTH], which “complex formation of PTH1R with endogenous LRP6” value (LRP6-PTH1R complex) is on record?
Answer: formed a complex with endogenous LRP6 in response to PTH in a time-dependent manner

Question: And the “phosphorylation of LRP6 at the PPPSP motifs” value (LRP6)?
Answer: rapidly induced

Question: What about the “axin1 level on cell membrane” value (axin1) of the same substance?
Answer: increased

Question: What about the “phosphorylation of LRP6 in preosteoblasts or osteoblasts at the surface of trabecular bone” value ([1]; single dose of PTH (1-34) 40 μg/kg, antibody specific for phosphorylated PPPSP) of the same substance?
Answer: stimulated

Question: And the “amount of total LRP6 protein” value ([1]; single dose, same tissue)?
Answer: remained unchanged
